Reference: publication PMC8353398 (Frontiers in Pharmacology, 2021)

Tests used:
rNEP = biological target: T1, rNEP (Rattus norvegicus, UniProt P07861); assay: Peptide stability, cleavage assay with purified rat neprilysin; format: in vitro ADME; settings: purified rat NEP (final around 50 nM), 5 µL of 1 mM peptide in about 105 µL; 100 mM Tris-HCl pH 7.4, 100 mM NaCl, 10 µM ZnCl2; 37°C, 300 rpm; sampled 5-120 min; UPLC-MS SIM; repeated 3-5 times
T1 construct: purchased Sino Biological (Beijing, China)
T1 sequence (P07861 1-750): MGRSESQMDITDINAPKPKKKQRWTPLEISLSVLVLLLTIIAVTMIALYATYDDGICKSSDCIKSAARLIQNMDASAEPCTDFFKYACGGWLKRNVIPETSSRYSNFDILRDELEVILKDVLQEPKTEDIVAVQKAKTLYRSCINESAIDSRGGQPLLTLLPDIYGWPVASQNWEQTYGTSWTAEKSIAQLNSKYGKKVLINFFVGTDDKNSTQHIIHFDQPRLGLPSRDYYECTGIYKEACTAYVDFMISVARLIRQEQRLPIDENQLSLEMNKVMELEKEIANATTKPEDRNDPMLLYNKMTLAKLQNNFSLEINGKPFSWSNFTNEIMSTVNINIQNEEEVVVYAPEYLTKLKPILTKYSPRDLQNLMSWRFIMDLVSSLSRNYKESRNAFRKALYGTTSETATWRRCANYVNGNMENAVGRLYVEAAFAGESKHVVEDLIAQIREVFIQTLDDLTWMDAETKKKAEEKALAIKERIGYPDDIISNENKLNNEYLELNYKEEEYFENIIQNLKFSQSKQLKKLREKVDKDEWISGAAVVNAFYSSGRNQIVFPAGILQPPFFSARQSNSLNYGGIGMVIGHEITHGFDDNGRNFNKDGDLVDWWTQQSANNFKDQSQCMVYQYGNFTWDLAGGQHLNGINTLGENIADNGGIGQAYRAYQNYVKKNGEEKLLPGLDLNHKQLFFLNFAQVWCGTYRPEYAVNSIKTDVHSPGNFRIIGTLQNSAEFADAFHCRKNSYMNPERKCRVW
Method: (§1) Rat enzymes rACE2 and rNEP were purchased from Sino Biological (Beijing, China) while rACE was obtained from EMD Millipore (Burlington, MA, United States). Enzymes were dissolved in milli-Q water (at 1 μM for rACE2/rNEP and 1.65 μM for rACE), aliquoted and stored at -80°C, as recommended by suppliers. […] Before adding the enzyme, the blank sample (t = 0 min) was prepared by removing 10 μL of this mixture and quenched with 10 μL of EDTA 0.5 M. To initiate the enzymatic reaction, 5 μL of enzyme (1 μM or 1.65 μM) was added to the mixture (final enzyme concentration around 50 nM or 82 nM). This mixture was kept in an incubator at 37°C equipped with an orbital shaker (300 rpm). Ten μL was sampled at 5, 10, 20, 60, and 120 min from this mixture, and quenched with 10 μL EDTA 0.5 M (prepared in milli-Q water and filtered) to inactivate the enzyme. […] First analyses (t = 0 min, t = 120 min) scanned m/z from 300-1200 to evaluate if peptides are cleaved and peptide fragments will be detected. After identifying the m/z of peptides and fragments, peptides were quantified using single ion mode (SIM). […] Angiotensin II was used as reference substrate in the assay with rACE2 and rNEP and angiotensin I was used as reference substrate in the assay with rACE. Experiments were repeated 3-5 times.

rACE = assay: Peptide stability, cleavage assay with purified rat ACE; format: in vitro ADME; settings: purified rat ACE (final around 82 nM), 5 µL of 1 mM peptide in about 105 µL; 100 mM Tris-HCl pH 7.4, 100 mM NaCl, 10 µM ZnCl2; 37°C, 300 rpm; sampled 5-120 min; UPLC-MS SIM; repeated 3-5 times
Method: as §1

[1] = test system: adult male Sprague-Dawley rats; settings: cecal-ligation puncture sepsis, 10 nmol/kg/hr, ref Coquerel et al., 2017; cited from earlier work
Excerpt: The final peptide was cleaved fr ...

rACE2 = biological target: T2, rACE2 (Rattus norvegicus, UniProt Q5EGZ1); assay: Peptide stability, cleavage assay with purified rat ACE2; format: in vitro ADME; settings: purified rat ACE2 (final around 50 nM), 5 µL of 1 mM peptide in about 105 µL; 100 mM Tris-HCl pH 7.4, 100 mM NaCl, 10 µM ZnCl2; 37°C, 300 rpm; sampled 5-120 min; UPLC-MS SIM; repeated 3-5 times
T2 construct: purchased Sino Biological (Beijing, China)
Method: as §1

[2] = test system: spontaneously hypertensive rats (SHR); assay: Invasive hemodynamics and echocardiography after 6-week infusion in SHR rats; settings: for Diastolic AP / Mean AP / Systolic AP: pressure catheter
Method: Male spontaneously hypertensive rats (SHR) and normotensive Wistar-Kyoto (WKY) rats were purchased from Charles River Laboratories (Kingston, ON, Canada) and maintained in a temperature-controlled room with a 12 h light/dark cycle at the animal facility of the Université de Sherbrooke. All animals were randomized with unique identification number into the different groups tested to maintain experimenter blinding. The study included six distinct SHR experimental groups (Table 1). Three groups received a standard rat chow diet containing 0.3% of NaCl (Charles River, ON, Canada) while the other three groups were fed a rat diet containing 8% of NaCl for 6 weeks (Research Diets, NJ, United States). Once a week, urine output and water intake were measured over 24 h using metabolic cages following 3 days of acclimatization. After 6 weeks of different salt intake regimens, the rats were anesthetized with 2% isoflurane for echocardiographic and hemodynamic measurements. Subsequently, blood samples were collected into tubes containing K2-EDTA and centrifuged at 2000 g for 10 min at 4°C before storing the plasma at −80°C. Plasma and urinary concentrations of sodium were determined by a vitros 750 XRC analyser (Johnson-Johnson Clinical Diagnostics; Rochester, NY). OCT-embedded sections of heart (7 µm) were generated and collagen fibers visualized by Masson’s trichrome staining. Immunohistochemistry stained slides were captured by an automated Hamamatsu Nanozoomer 2.0RS slide scanner (Hamamatsu Photonics). Heart and kidneys were also harvested, snap frozen in liquid nitrogen and stored at −80°C for mRNA expression analysis. All animal procedures were approved by our institutional ethical committee (protocol #2017–2115), in compliance with the policies and directives of the Canadian Council on Animal Care and with the ARRIVE guidelines.
Briefly, 2-chlorotrityl chloride resin (2-CTC, 120 mg) was loaded with Fmoc-L-Phe-OH (0.85 mmol/g). Fmoc protecting group was removed by treating the resin with a 20% piperidine solution. The coupling steps were carried out using [hexafluorophosphate of O-(7-azabenzotriazol-1-yl)-1,1,3,3-tetramethyluronium] (HATU, 5 equiv), amino acid (5 equiv) and DIPEA (5 equiv). The final peptide was cleaved from resin using a cocktail of trifluoroacetic acid (TFA)/triisopropylsilane (TIPS)/ethanedithiol (EDT)/water (92.5/2.5/2.5/2.5) and purified by preparative HPLC (ACE5 C18 column 250 × 21.2 mm, 5 μm spherical particle size). […] Finally, peptide was purified by preparative HPLC.
Transthoracic echocardiography was performed under isoflurane anesthesia (2%; […]; Baxter) with the Vevo 3,100 ultrasound apparatus using a MX250 transducer (FUJIFILM VisualSonics, ON, Canada). A short axis view of the left ventricle (LV) was obtained at the level of the papillary muscle and the M-mode tracing was recorded. LV End-Diastolic and End-Systolic Diameters (LVEDD; LVESD) were measured in order to calculate the fractional shortening (FS). Stroke volume was next calculated in order to assess Cardiac Output (CO) and Cardiac Index (CI). Pulse propagation velocity (PPV) was determined by ultrasound measurements of the abdominal aorta using EKV-image acquisition and analyzed with Vevo-Vasc software (FUJIFILM VisualSonics, ON, Canada). For invasive hemodynamic measurements, rats were intubated under isoflurane anesthesia (2%; […]; Baxter, IL, United States) and ventilated (SAR-1000, CWE). The right carotid artery was then cannulated with a pressure catheter (1.9F, Transonic, NY, United States) and advanced into the LV to record end-systolic and end-diastolic pressures.

[3] = test system: spontaneously hypertensive rats (SHR); assay: Quantitative RT-PCR of pro-fibrotic and RAAS genes in heart and kidneys of treated SHR rats; format: in vivo, rat; settings: high-salt diet, 10 nmol/kg/hr 6-week infusion, qRT-PCR, Rpl30 reporter
Method: Total RNA was extracted from heart and kidneys using RNeasy Mini kits (Qiagen) according to the manufacturer’s protocol. iScript Reverse Transcription Supermix (Bio-Rad) was used to prepare cDNA from 1 µg of total RNA in 20 µL. Real-time PCR was performed on technical duplicates with cDNA diluted 30x in nuclease-free water and using SsoAdvanced™ Universal SYBR® Green Supermix (Bio-Rad) in a Mastercycler® ep RealPlex (Eppendorf). The Ribosomal protein L30 (Rpl30) of heart or kidney was used as a reporter gene and fold changes were obtained using the 2(-ΔΔCt) method ([Livak and Schmittgen, 2001]). Data were then normalized to SHR rats receiving a standard chow diet containing 0.3% of NaCl.

[4] = SHR, high-salt diet (8% NaCl), 10 nmol/kg/hr s.c. infusion 6 weeks, mean ± SEM, n = 6
[5] = SHR, high-salt diet, 10 nmol/kg/hr s.c. infusion 6 weeks, echocardiography, mean ± SEM, n = 6
[6] = SHR, normal-salt diet (0.3% NaCl), 10 nmol/kg/hr s.c. infusion 6 weeks, mean ± SEM, n = 5
[7] = SHR, normal-salt diet, 10 nmol/kg/hr s.c. infusion 6 weeks, echocardiography, mean ± SEM, n = 5

T2 sequence (Q5EGZ1 18-805): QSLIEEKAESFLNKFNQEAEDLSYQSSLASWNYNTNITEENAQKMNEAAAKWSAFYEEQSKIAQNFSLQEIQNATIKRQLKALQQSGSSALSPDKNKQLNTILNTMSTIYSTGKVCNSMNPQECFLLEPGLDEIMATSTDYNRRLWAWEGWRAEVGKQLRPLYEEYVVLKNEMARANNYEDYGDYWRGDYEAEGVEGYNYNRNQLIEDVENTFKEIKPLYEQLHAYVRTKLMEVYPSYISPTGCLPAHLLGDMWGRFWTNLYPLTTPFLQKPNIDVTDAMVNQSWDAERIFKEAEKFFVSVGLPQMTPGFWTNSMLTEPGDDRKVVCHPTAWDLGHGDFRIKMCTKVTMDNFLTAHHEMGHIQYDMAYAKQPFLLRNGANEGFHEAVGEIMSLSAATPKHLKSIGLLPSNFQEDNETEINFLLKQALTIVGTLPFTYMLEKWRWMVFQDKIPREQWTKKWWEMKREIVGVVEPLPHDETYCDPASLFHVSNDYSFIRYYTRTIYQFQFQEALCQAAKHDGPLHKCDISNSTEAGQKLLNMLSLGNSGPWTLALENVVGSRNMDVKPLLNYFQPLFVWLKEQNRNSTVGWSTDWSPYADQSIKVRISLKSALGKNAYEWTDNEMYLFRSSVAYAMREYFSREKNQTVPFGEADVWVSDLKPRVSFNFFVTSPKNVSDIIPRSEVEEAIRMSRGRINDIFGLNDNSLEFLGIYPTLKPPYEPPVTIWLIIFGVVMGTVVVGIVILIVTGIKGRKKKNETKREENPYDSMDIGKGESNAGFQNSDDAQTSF

In the case of CSCC[C@H](NC(=O)[C@@H]1CCCN1C(=O)CNC(=O)[C@H](CCCCN)NC(=O)[C@H](Cc1cnc[nH]1)NC(=O)[C@H](CO)NC(=O)[C@H](CC(C)C)NC(=O)[C@H](CCCNC(=N)N)NC(=O)[C@@H]1CCCN1C(=O)[C@H](CCCNC(=N)N)NC(=O)[C@@H]1CCC(=O)N1)C(=O)N1CCC[C@H]1C(=O)N[C@@H](Cc1ccccc1)C(=O)O [Ape13, [Pyr^1]-Apelin-13], the “Cleavage by neprilysin within 2 h” value (rNEP) is given as “rapidly and fully hydrolyzed”, the “Cleavage by ACE within 2 h” value (rACE) is given as “only partially” and the Survival [1] is given as “improved the survival”. For the same compound, the “Cleavage by ACE2 within 2 h” value (rACE2) was “rapidly and fully hydrolyzed”, the “Effect on cardiovascular damage caused by hypertension per se” value ([2]; SHR on normal-salt intake compared to normotensive WKY, chronic treatment 6 weeks) was “does not prevent or reverse” and the “Effect on hypertension induced by a high-salt diet” value ([2]; SHR, high-salt diet (8% NaCl), 10 nmol/kg/hr continuous 6-week infusion) was “no significant effect”. The Weight [2, 4] was 339 ± 10 g, the “Diastolic AP” value [2, 4] was 131 ± 17 mmHg and the “Mean AP” value [2, 4] was 152 ± 19 mmHg. For the same compound, the “Systolic AP” value [2, 4] was 194 ± 23 mmHg, the “AWTS (anterior wall thickness during systole)” value [2, 5] was 2.4 ± 0.1 mm and the “FS (fractional shortening)” value [2, 5] was 37.6 ± 3.3%. For the same compound, the “HR (heart rate)” value [2, 5] was 348 ± 12 bpm, the “LVEDD (left ventricular end diastolic diameter)” value [2, 5] was 7.2 ± 0.1 mm and the “LVESD (left ventricular end systolic diameter)” value [2, 5] was 4.5 ± 0.3 mm. For the same compound, the “PWTS (posterior wall thickness during systole)” value [2, 5] was 2.6 ± 0.1 mm, the Weight [2, 6] was 321 ± 5 g and the “Diastolic AP” value [2, 6] was 125 ± 12 mmHg. For the same compound, the “Mean AP” value [2, 6] was 143 ± 14 mmHg, the “Systolic AP” value [2, 6] was 179 ± 19 mmHg and the “APPV (aortic pulse propagation velocity)” value [2, 7] was 4.5 ± 0.4 m/s. For the same compound, the “AWTS (anterior wall thickness during systole)” value [2, 7] was 2.3 ± 0.1 mm, the “FS (fractional shortening)” value [2, 7] was 39.8 ± 1.1% and the “HR (heart rate)” value [2, 7] was 372 ± 4 bpm. The “LVEDD (left ventricular end diastolic diameter)” value [2, 7] was 6.3 ± 0.4 mm, the “LVESD (left ventricular end systolic diameter)” value [2, 7] was 3.8 ± 0.3 mm and the “PWTS (posterior wall thickness during systole)” value [2, 7] was 2.3 ± 0.1 mm. For the same compound, the “Expression of pro-fibrotic Col1a, Acta1 and Tgfb2 genes in kidneys” value [3] was “only reduced the Tgfb2 mRNA level”.
